{
  "source": "ChEMBL document CHEMBL4342527",
  "about": "“Discovery of Novel Fungal Lanosterol 14α-Demethylase (CYP51)/Histone Deacetylase Dual Inhibitors to Treat Azole-Resistant Candidiasis” (J Med Chem, 2020)",
  "key": {"Candida albicans [1]": {"tested_on": "Candida albicans", "assay": "Antifungal activity against Candida albicans 0304103 assessed as inhibition of yeast to hypha morphological transition at 1 ug/ml after 4 hrs by differential interference contrast microscopic analysis relative to control", "type": "functional", "conditions": "Candida albicans, 0304103, 4 h"}, "Candida albicans [2]": {"tested_on": "Candida albicans", "assay": "Inhibition of HDAC in azole-resistant Candida albicans 0304103 assessed as reduction in MDR1 gene expression at 32 ug/ml after 16 hrs by SYBR Green-1 dye based RT-PCR analysis", "conditions": "304103"}, "Candida albicans [3]": {"tested_on": "Candida albicans", "assay": "Antifungal activity against azole-resistant Candida albicans 0304103 infected in ICR mouse assessed as mean survival time at 20 mg/kg, ip qd for 5 days (reference value: 10 days)", "type": "functional"}, "[4]": {"target": "Lanosterol 14-alpha demethylase (Candida albicans (strain SC5314 / ATCC MYA-2876) (Yeast), UniProt P10613)", "sequence (P10613 whole entry)": "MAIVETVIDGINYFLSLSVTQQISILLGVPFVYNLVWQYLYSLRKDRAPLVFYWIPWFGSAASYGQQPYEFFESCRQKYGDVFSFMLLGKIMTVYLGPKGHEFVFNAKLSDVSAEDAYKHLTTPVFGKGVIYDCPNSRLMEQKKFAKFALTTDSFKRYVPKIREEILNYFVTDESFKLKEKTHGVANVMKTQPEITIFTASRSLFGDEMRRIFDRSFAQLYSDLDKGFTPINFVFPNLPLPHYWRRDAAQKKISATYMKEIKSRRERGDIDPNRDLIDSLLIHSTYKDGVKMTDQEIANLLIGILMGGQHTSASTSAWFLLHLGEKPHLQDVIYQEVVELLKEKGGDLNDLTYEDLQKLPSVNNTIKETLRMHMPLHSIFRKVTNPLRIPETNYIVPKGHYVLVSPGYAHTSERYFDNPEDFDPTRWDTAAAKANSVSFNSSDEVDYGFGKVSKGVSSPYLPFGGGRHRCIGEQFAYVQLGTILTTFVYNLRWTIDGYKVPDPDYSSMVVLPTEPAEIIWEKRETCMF", "assay": "Inhibition of CYP51 in azole-resistant Candida albicans 0304103 assessed as obtusifoliol level at 0.5 ug/ml after 24 hrs by GC-MS analysis relative to control", "parameters": "scale not given: the % may be the effect or the level left"}, "Candida albicans [5]": {"tested_on": "Candida albicans", "assay": "Inhibition of yeast to hypha transition in azole resistant Candida albicans 0304103 assessed as down regulation of TEC1 gene expression at 32 ug /ml after 16 hrs by SYBR Green I dye based RT-PCR analysis", "type": "functional, organism-based"}, "[6]": {"target": "T1, Protein deacetylase HDAC6 (Homo sapiens, UniProt Q9UBN7)", "T1 sequence (Q9UBN7 whole entry)": "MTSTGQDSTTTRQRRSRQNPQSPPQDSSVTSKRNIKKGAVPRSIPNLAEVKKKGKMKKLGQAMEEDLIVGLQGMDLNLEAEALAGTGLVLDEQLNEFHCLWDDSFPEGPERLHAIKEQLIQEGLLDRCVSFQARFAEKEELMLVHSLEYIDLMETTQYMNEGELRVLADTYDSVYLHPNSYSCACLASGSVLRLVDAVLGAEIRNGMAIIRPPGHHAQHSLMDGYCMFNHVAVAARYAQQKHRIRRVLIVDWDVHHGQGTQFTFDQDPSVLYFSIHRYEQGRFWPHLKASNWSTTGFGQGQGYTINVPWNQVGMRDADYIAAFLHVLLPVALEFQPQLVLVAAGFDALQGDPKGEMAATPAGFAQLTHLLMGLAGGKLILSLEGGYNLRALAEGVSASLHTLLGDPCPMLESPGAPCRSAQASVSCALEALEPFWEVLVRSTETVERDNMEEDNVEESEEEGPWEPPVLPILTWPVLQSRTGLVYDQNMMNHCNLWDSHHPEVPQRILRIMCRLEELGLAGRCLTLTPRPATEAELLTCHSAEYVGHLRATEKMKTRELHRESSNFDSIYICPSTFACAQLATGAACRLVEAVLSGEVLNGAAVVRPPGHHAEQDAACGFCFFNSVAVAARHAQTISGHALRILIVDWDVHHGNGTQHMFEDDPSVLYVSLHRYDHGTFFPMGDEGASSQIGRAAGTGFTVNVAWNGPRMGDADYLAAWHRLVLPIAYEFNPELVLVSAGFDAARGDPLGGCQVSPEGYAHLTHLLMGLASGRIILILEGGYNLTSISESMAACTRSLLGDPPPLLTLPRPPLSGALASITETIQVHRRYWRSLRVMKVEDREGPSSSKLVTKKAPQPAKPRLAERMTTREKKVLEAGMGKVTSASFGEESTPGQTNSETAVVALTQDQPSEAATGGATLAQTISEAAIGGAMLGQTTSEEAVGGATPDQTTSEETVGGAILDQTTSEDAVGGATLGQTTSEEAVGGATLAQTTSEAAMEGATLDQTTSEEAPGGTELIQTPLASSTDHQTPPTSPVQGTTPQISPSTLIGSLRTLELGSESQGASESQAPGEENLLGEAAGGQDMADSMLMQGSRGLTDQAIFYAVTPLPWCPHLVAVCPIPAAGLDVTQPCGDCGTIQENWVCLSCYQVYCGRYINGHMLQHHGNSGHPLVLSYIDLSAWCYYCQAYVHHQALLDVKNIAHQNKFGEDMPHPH", "assay": "Inhibition of HDAC6 (unknown origin) after 30 mins by fluorescence based assay"}, "Candida albicans [7]": {"tested_on": "Candida albicans", "assay": "Fungistatic activity agaisnt Candida albicans 0304103 at 16 ug/ml preincubated for up to 24 hrs followed by replating on SDA plate and measured after 48 hrs by time kill assay", "type": "functional, organism-based"}, "[8]": {"assay": "Selectivity index, ratio of IC50 for human A549 cells to MIC80 for azole-resistant Candida albicans 0304103", "type": "toxicity"}, "Candida albicans [9]": {"tested_on": "Candida albicans", "assay": "Antifungal activity against Candida albicans 0304103 assessed as inhibition of yeast to hypha morphological transition at 8 ug/ml after 4 hrs by differential interference contrast microscopic analysis relative to control", "type": "functional", "conditions": "Candida albicans, 0304103, 4 h"}},
  "note": "Activity calls are given as the source filed them. The calls are words filed in the database; no cut-off is given here.",
  "data": [
    {"smiles": "CN(Cc1ccc(OCCCOc2ccc(CC(=O)NO)cc2)cc1)CC(O)(Cn1cncn1)c1ccc(F)cc1F", "note": "(racemic)", "values": [
      {"measurement": "inhibition at 1 µg/mL", "setting": "Candida albicans [1]", "result": 100, "unit": "%"},
      {"measurement": "inhibition", "setting": "Candida albicans [2]", "result": "Active"},
      {"measurement": "MST", "setting": "Candida albicans [3]", "result": 16.5, "unit": "days"},
      {"measurement": "Activity", "setting": "[4]", "result": 7.59, "unit": "%"},
      {"measurement": "inhibition", "setting": "Candida albicans [5]", "result": "Active"},
      {"measurement": "IC50", "setting": "[6]", "result": 600, "unit": "nM"},
      {"measurement": "Activity", "setting": "Candida albicans [7]", "result": "Active"},
      {"measurement": "selectivity ratio", "setting": "[8]", "result": "2 to 16"}
    ]},
    {"smiles": "CN(Cc1ccc(-n2cnn(CCCCc3ccc(C(=O)NO)cc3)c2=O)cc1)CC(O)(Cn1cncn1)c1ccc(F)cc1F", "note": "(racemic)", "values": [
      {"measurement": "inhibition at 8 µg/mL", "setting": "Candida albicans [9]", "result": 100, "unit": "%"},
      {"measurement": "MST", "setting": "Candida albicans [3]", "result": 20, "unit": "days"},
      {"measurement": "inhibition", "setting": "Candida albicans [5]", "result": "Active"},
      {"measurement": "IC50", "setting": "[6]", "result": 120, "unit": "nM"},
      {"measurement": "selectivity ratio", "setting": "[8]", "result": "2 to 16"}
    ]}
  ]
}
